The record followed here is US20100120762A1, “Triazine derivatives as inhibitors of phosphodiesterases” (WYETH, priority 2008, published 2010).

For orientation: IC50 means the point on the concentration scale where inhibition reaches its midpoint.

Where two headings read alike, the source gives them in different places.

Assay [1] addresses T1, PDE2A (NM002599) (Homo sapiens, UniProt O00408).
T1 construct: made in house; host or cells: baculovirus / SF21 insect cells
The experiment in a line: Inhibition of recombinant PDE2A (expressed in baculovirus/SF21-cells). The class given is biochemical. The protocol: PDE2A (NM002599) was cloned and the gene was inserted in the baculovirus and the enzyme-protein expressed in SF21-cells. The enzyme was isolated from these cells by harvesting the cells by an centrifugation at 200 g to collect the cells. The cells were resuspended in 50 mM Tris-HCl/5 mM MgCl2 buffer (pH=7.4) (Sigma, Deisenhofen, Germany; Merck, Darmstadt, Germany) and lysed by a sonication of the cells (three times for 15 seconds, Labsonic U, Fa. Braun, Degersheim, Switzerland, level “high”). The membrane fraction of PDE2A was obtained by a centrifugation at 48 000 g for 1 h, resuspended in buffer and stored at −70° C.
PDE2A activity was determined in a one step procedure in microtiterplates. The reaction mixture of 100 μl contained 50 mM Tris-HCl/5 mM MgCl2 buffer (pH=7.4) (Sigma, Deisenhofen, Germany; Merck, Darmstadt, Germany), 0.5 μM [3H]-cAMP (Amersham, Buckinghamshire, UK), 1000 nM cGMP and the enzyme. Non-specific enzyme activity was tested in the absence of cGMP. The reaction was initiated by addition of the substrate solution and was carried out at 37° C. for 30 minutes. Enzymatic activity then was stopped by addition of 25 μl SPA-beads (Amersham-Pharmacia). One hour later the mixture was measured in a liquid scintillation counter for microtiterplates (Microbeta Trilux). For pipetting of the incubation mixture the robot Biomek (Fa. Beckman) was routinely used.
The optimal amount of enzyme in the assay has been determined and optimised for each enzyme preparation separately before using the enzyme in compound testing. For determination of IC50 values the Hill-plot, 2-parameter-model, was used.

Assay [2] deals with T2, PDE10A1 (AB 020593) (Homo sapiens, UniProt Q9Y233).
T2 construct: made in house; host or cells: baculovirus / SF21 insect cells (gene synthesized by Entelechon GmbH)
The experiment in a line: Inhibition of recombinant PDE10A (baculovirus/SF21 system). The class given is biochemical. The protocol:
The DNA of PDE10A1 (AB 020593, 2340 bp) was synthesized and cloned into the vector pCR4.TOPO (Entelechon GmbH, Regensburg, Germany). The gene was than inserted into a baculovirus vector, ligated with the baculovirus DNA. The enzyme-protein was expressed in SF21-cells. The enzyme was isolated from these cells by harvesting the cells by an centrifugation at 500 g to collect the cells.
The cells were resuspended in 50 mM Tris-HCl/1 mM EDTA/250 mM Sucrose buffer, pH=7.4 (Sigma, Deisenhofen, Germany; Merck, Darmstadt, Germany) and lysed by sonification of the cells (three times for 15 seconds, Labsonic U, Fa. Braun, Degersheim, Switzerland, level “high”). The cytosolic PDE10A was obtained by a centrifugation at 48,000 g for 1 h in the supernatant and stored at −70° C.
PDE activity was determined in a one step procedure in microtiter plates. The reaction mixture of 100 μl contained 50 mM Tris-HCl/5 mM MgCl2 buffer (pH=7.4, Sigma, Deisenhofen, Germany; Merck, Darmstadt, Germany) 0.1 μM [3H]-cAMP (Amersham, Buckinghamshire, UK) and the enzyme. Non-specific enzyme activity was determined without the enzyme. The reaction was initiated by addition of the substrate solution and was carried out at 37° C. for 30 minutes. Enzymatic activity then was stopped by addition of 25 μl Ysi-SPA-beads (Amersham-Pharmacia). One h later the mixture was measured in a liquid scintillation counter for microtiter plates (Microbeta Trilux). The Biomek 2000 (Beckman) was used routinely for pipetting of the incubation mixture. The optimal amount of enzyme in the assay has been determined and optimized for each enzyme preparation separately before using the enzyme in compound testing. For determination of IC50 values the Hill-plot, 2-parameter-model, was used.

The mark [3] stands for this setting: recombinant PDE2A, 0.5 μM [3H]-cAMP, 1000 nM cGMP, 37° C., 30 minutes, SPA, read-out: PDE2A IC50.
[4] abbreviates: recombinant cytosolic PDE10A, 0.1 μM [3H]-cAMP, 37° C., 30 minutes, SPA, read-out: PDE10A IC50.

T2 sequence (Q9Y233 other isoform, or with tags, fused parts or gaps): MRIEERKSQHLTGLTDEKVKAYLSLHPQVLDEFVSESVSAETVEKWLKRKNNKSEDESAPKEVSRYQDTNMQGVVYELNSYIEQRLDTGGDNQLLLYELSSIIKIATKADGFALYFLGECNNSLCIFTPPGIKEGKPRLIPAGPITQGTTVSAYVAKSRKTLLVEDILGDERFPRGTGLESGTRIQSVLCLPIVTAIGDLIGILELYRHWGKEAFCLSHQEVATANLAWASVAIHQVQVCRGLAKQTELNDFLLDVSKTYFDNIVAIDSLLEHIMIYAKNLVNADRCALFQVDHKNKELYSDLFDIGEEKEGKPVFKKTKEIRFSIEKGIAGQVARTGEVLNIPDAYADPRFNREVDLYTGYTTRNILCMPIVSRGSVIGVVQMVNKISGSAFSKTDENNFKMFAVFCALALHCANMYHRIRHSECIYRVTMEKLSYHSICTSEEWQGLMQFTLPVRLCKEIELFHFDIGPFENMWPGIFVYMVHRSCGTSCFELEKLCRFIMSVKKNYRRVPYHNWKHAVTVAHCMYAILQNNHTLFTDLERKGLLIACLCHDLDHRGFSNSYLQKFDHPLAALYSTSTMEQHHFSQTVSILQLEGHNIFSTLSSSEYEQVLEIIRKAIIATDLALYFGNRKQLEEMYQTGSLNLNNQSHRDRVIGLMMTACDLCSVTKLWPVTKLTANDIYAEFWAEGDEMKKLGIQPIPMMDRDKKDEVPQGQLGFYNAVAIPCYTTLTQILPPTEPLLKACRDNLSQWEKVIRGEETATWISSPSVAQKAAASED
T1 sequence (O00408 whole entry): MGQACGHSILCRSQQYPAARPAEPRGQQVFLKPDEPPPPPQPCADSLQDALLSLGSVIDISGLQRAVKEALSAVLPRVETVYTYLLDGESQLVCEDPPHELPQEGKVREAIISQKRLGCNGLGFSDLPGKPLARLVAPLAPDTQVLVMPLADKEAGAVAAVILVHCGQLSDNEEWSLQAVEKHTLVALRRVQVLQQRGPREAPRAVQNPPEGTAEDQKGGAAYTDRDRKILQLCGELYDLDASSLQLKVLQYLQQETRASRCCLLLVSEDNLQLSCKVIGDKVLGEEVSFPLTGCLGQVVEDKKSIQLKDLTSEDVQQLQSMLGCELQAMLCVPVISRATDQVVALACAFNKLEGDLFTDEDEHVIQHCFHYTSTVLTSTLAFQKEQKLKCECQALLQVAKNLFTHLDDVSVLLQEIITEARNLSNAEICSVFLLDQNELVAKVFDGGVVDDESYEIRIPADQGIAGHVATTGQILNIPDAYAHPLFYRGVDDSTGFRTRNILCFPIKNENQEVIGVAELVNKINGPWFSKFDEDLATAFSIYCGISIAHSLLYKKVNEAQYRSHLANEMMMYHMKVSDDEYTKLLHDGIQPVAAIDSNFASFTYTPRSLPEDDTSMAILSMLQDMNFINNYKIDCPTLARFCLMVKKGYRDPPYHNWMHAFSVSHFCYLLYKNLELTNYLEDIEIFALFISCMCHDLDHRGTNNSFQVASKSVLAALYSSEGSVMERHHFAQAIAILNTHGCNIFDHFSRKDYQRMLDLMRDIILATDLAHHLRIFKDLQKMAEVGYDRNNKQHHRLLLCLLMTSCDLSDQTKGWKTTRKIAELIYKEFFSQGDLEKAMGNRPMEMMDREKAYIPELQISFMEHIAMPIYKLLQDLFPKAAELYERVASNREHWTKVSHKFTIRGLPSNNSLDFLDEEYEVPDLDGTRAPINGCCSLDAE

On to `COc1cccc(-c2nc(C)c3nnc4ccc(OC)nc4n23)c1` [Example 58, 2-methoxy-9-(3-methoxyphenyl)-7-methylimidazo[5,1-c]pyrido[2,3-e][1,2,4]triazine], for which the IC50 was determined as 14.7 nM in assay [1] (setting [3]) and 37.7 nM in assay [2] (setting [4]).

For the compound `COc1ccc(Cl)c(-c2nc(C)c3nnc4ccc(OC)nc4n23)c1` [Example 59, 9-(2-chloro-5-methoxyphenyl)-2-methoxy-7-methylimidazo[5,1-c]pyrido[2,3-e][1,2,4]triazine], the IC50 in assay [1] (setting [3]) is 2.2 nM; in assay [2] (setting [4]), 40.9 nM.

As for `COc1ccc2nnc3c(C)nc(-c4cc(Cl)ccc4C)n3c2n1` [Example 60, 9-(5-chloro-2-methylphenyl)-2-methoxy-7-methylimidazo[5,1-c]pyrido[2,3-e][1,2,4]triazine], the IC50 in assay [1] (setting [3]) came out at 8 nM; in assay [2] (setting [4]), 106 nM.

For the compound `COc1ccc2nnc3c(C)nc(-c4ccc(C)cc4Cl)n3c2n1` [Example 61, 9-(2-chloro-4-methylphenyl)-2-methoxy-7-methylimidazo[5,1-c]pyrido[2,3-e][1,2,4]triazine], the IC50 in assay [1] (setting [3]) was determined as 7.54 nM; in assay [2] (setting [4]), 21.6 nM.

Regarding `COc1ccc2nnc3c(C)nc(-c4cc(F)ccc4Cl)n3c2n1` [Example 62, 9-(2-chloro-5-fluorophenyl)-2-methoxy-7-methylimidazo[5,1-c]pyrido[2,3-e][1,2,4]triazine], the IC50 in assay [1] (setting [3]) came to 5.32 nM; in assay [2] (setting [4]) it was 21.2 nM.

Consider `COc1ccc2nnc3c(C)nc(-c4cccc(C)c4F)n3c2n1` [Example 63, 9-(2-fluoro-3-methylphenyl)-2-methoxy-7-methylimidazo[5,1-c]pyrido[2,3-e][1,2,4]triazine], for which the figures for the IC50 in assay [1] (setting [3]) and in assay [2] (setting [4]) were 55.2 nM and 86.8 nM, respectively.

Regarding `COc1ccc2nnc3c(C)nc(-c4ccncc4C)n3c2n1` [Example 64, 2-methoxy-7-methyl-9-(3-methylpyridin-4-yl)imidazo[5,1-c]pyrido[2,3-e][1,2,4]triazine], the IC50 in assay [1] (setting [3]) stood at 56.2 nM; in assay [2] (setting [4]) it was 85.6 nM.

Regarding `COc1ccc2nnc3c(C)nc(-c4c(C)nn(C)c4C)n3c2n1` [Example 65, 2-methoxy-7-methyl-9-(1,3,5-trimethyl-1H-pyrazol-4-yl)imidazo[5,1-c]pyrido[2,3-e][1,2,4]triazine], the concentration for half-maximal inhibition (IC50) in assay [1] (setting [3]) amounted to 22.9 nM; in assay [2] (setting [4]) it was 120 nM.

For the compound `COc1ccc2nnc3c(C)nc(-c4ccc(F)nc4C)n3c2n1` [Example 66, 9-(6-fluoro-2-methylpyridin-3-yl)-2-methoxy-7-methylimidazo[5,1-c]pyrido[2,3-e][1,2,4]triazine], the IC50 turned out to be 49 nM in assay [1] (setting [3]) and 225 nM in assay [2] (setting [4]).

For the compound `COc1ccc2nnc3c(C)nc(-c4cnc(F)c(C)c4)n3c2n1` [Example 67, 9-(6-fluoro-5-methylpyridin-3-yl)-2-methoxy-7-methylimidazo[5,1-c]pyrido[2,3-e][1,2,4]triazine], the values for the half-inhibitory concentration (IC50) in assay [1] (setting [3]) and in assay [2] (setting [4]) were 55.6 nM and 226 nM, respectively.

Regarding `COc1ccc2nnc3c(C)nc(-c4ccc(C)cc4F)n3c2n1` [Example 69, 9-(2-fluoro-4-methylphenyl)-2-methoxy-7-methylimidazo[5,1-c]pyrido[2,3-e][1,2,4]triazine], the IC50 was found to be 48.3 nM in assay [1] (setting [3]) and 49.9 nM in assay [2] (setting [4]).

Take `COc1ccc2nnc3c(C)nc(-c4ccccc4OC)n3c2n1` [Example 70, 2-methoxy-9-(2-methoxyphenyl)-7-methylimidazo[5,1-c]pyrido[2,3-e][1,2,4]triazine]: the 50% inhibitory concentration (IC50) in assay [1] (setting [3]) was found to be 108 nM; in assay [2] (setting [4]) it was 83.4 nM.

As to `COc1ccc2nnc3c(C)nc(-c4cc(C)ccc4Cl)n3c2n1` [Example 71, 9-(2-chloro-5-methylphenyl)-2-methoxy-7-methylimidazo[5,1-c]pyrido[2,3-e][1,2,4]triazine], the IC50 in assay [1] (setting [3]) was determined as 4.37 nM; in assay [2] (setting [4]) it was 37.9 nM.

In the case of `COc1ccc2nnc3c(C)nc(-c4cc(C(F)(F)F)ccc4Cl)n3c2n1` [Example 72, 9-(2-chloro-5-(trifluoromethyl)phenyl)-2-methoxy-7-methylimidazo[5,1-c]pyrido[2,3-e][1,2,4]triazine], the IC50 in assay [1] (setting [3]) worked out at 24.9 nM; in assay [2] (setting [4]), 282 nM.

For `COc1ccc2nnc3c(C)nc(-c4cc(F)ccc4C)n3c2n1` [Example 73, 9-(5-fluoro-2-methylphenyl)-2-methoxy-7-methylimidazo[5,1-c]pyrido[2,3-e][1,2,4]triazine], the concentration for half-maximal inhibition (IC50) was determined as 24.3 nM in assay [1] (setting [3]) and 38 nM in assay [2] (setting [4]).

With `CCOc1ccc(Cl)c(-c2nc(C)c3nnc4ccc(OC)nc4n23)c1` [Example 74, 9-(2-chloro-5-ethoxyphenyl)-2-methoxy-7-methylimidazo[5,1-c]pyrido[2,3-e][1,2,4]triazine], the values for the IC50 in assay [1] (setting [3]) and in assay [2] (setting [4]) were 10.1 nM and 87.9 nM, respectively.

In the case of `COc1ccc2nnc3c(C)nc(-c4ccc(F)cc4Cl)n3c2n1` [Example 75, 9-(2-chloro-4-fluorophenyl)-2-methoxy-7-methylimidazo[5,1-c]pyrido[2,3-e][1,2,4]triazine], the IC50 in assay [1] (setting [3]) came out at 11.8 nM; in assay [2] (setting [4]), 13.1 nM.

With `COc1ccc2nnc3c(C)nc(-c4cc(OC(F)(F)F)ccc4Cl)n3c2n1` [Example 76, 9-(2-chloro-5-(trifluoromethoxy)phenyl)-2-methoxy-7-methylimidazo[5,1-c]pyrido[2,3-e][1,2,4]triazine], the values for the IC50 in assay [1] (setting [3]) and in assay [2] (setting [4]) were 10.6 nM and 149 nM, respectively.

For the compound `COc1ccc2nnc3c(C)nc(-c4cscc4C)n3c2n1` [Example 77, 2-methoxy-7-methyl-9-(4-methylthiophen-3-yl)imidazo[5,1-c]pyrido[2,3-e][1,2,4]triazine], the results for the IC50 in assay [1] (setting [3]) and in assay [2] (setting [4]) were 51.2 nM and 43.6 nM, respectively.

As for `COc1ccc2nnc3c(C)nc(-c4ccoc4)n3c2n1` [Example 78, 9-furan-3-yl-2-methoxy-7-methylimidazo[5,1-c]pyrido[2,3-e][1,2,4]triazine], the IC50 worked out at 1390 nM in assay [1] (setting [3]) and 482 nM in assay [2] (setting [4]).

As to `COc1ccc2nnc3c(C)nc(-c4cnn(C)c4)n3c2n1` [Example 79, 2-methoxy-7-methyl-9-(1-methyl-1H-pyrazol-4-yl)imidazo[5,1-c]pyrido[2,3-e][1,2,4]triazine], the values for the IC50 in assay [1] (setting [3]) and in assay [2] (setting [4]) were 523 nM and 362 nM, respectively.

On to `COc1ccc2nnc3c(C)nc(-c4cncnc4)n3c2n1` [Example 80, 2-methoxy-7-methyl-9-pyrimidin-5-ylimidazo[5,1-c]pyrido[2,3-e][1,2,4]triazine], for which the values for the IC50 in assay [1] (setting [3]) and in assay [2] (setting [4]) were 4070 nM and 5950 nM, respectively.

Turning to `COc1ccc2nnc3c(C)nc(-c4ccc5[nH]ccc5c4)n3c2n1` [Example 81, 9-(1H-indol-5-yl)-2-methoxy-7-methylimidazo[5,1-c]pyrido[2,3-e][1,2,4]triazine], the half-inhibitory concentration (IC50) in assay [1] was 186 nM; in assay [2], 62.6 nM.

With `COc1ccc2nnc3c(C)nc(-c4cc(F)cc(C(N)=O)c4)n3c2n1` [Example 82, 3-fluoro-5-(2-methoxy-7-methylimidazo[5,1-c]pyrido[2,3-e][1,2,4]triazin-9-yl)benzamide], the IC50 turned out to be 279 nM in assay [1] (setting [3]) and 141 nM in assay [2] (setting [4]).

`COc1ccc2nnc3c(C)nc(-c4ccc(Cl)c(C(N)=O)c4)n3c2n1` [Example 83, 2-chloro-5-(2-methoxy-7-methylimidazo[5,1-c]pyrido[2,3-e][1,2,4]triazin-9-yl)benzamide]: the IC50 in assay [1] (setting [3]) came out at 639 nM; in assay [2] (setting [4]), 233 nM.
